In patent US12276039B2, “Crystal of europium compound and method for producing crystal of europium compound” (OHARA INC., priority 2020, dated 2025):

System: Hela cancer cells
Experiment: Toxicity evaluation: cell density of Hela cancer cells cultured with FA (folic acid)-modified particles
Type: cell-based
Conditions: FA-modified particles on Hela cells, FIG. 9
Experimental: Particles of Examples 1 to 3 or Comparative Examples 1 to 2 were subjected to toxicity evaluation by cancer cell imaging and fluorescence intensity measurement by the following methods.
To 250 mg of the particles of Examples 1 to 3 or Comparative Examples 1 to 2, 12 ml of an HCl aqueous solution (pH=2) was added, and ultrasonic treatment was carried out. Next, a solution containing 0.78 ml (3.3 mmol) of 3-aminopropyltriethoxysilane (APTES) in 5 mL of ethanol was prepared and added to the ultrasonic-treated solution to obtain a mixed solution. The mixed solution was stirred for 20 hours at 40° C. (pH<6.5). […]
After the above cells were cultured, a polystyrene dish (TCPS) including cells was washed twice with 1 ml of phosphate buffered saline (PBS), then FA (folic acid)-modified particles which had not taken up by the cells were removed, 0.1 ml of 0.05% Trypsin-EDTA was placed in a TCPS including cells, followed by allowing to stand still in a CO2 incubator for 12 minutes, and cells were peeled off from TCPS. […] Thereafter, the supernatant was discarded, 20 ml of medium was added to the tube, pipetting was carried out about 20 times, 1 ml was aliquoted into 15 ml-tubes, the cell suspension was placed into a disposable hemocytometer using a micropipette outside a clean bench, the cell number was confirmed under a microscope, and the average value (cell/cm^2) was calculated. […]

O.O.O.O.O.O.[Cl][Eu]([Cl])[Cl] [Comparative Example 2, Europium chloride hexahydrate] was tested, and the “cell proliferation behavior (average cell density)” value (3, 12, 24, 36 and 48 hours after spraying) was “a normal cell proliferation behavior was not observed” and the cytotoxicity was “cytotoxicity due to the elution”.
